According to the NIST ThermoML archive (doi:10.1016/j.jct.2015.11.017):
Numbers after ± are expanded uncertainties.

Test: mn = molality of the nth substance listed, in mol/kg
Details: 298.2 K, 101.3 kPa, Liquid, Alternating current cell with electrodes

electrical conductivity (m1 = 0.01003): 0.0586 ± 0.001 S/m | electrical conductivity (m1 = 0.01504): 0.0684 ± 0.001 S/m | electrical conductivity (m1 = 0.02006): 0.0816 ± 0.001 S/m | electrical conductivity (m1 = 0.02507): 0.097 ± 0.01 S/m | electrical conductivity (m1 = 0.03009): 0.106 ± 0.01 S/m
SMILES: CCCCCCCCCCCCOS(=O)(=O)[O-].[Na+] [sodium dodecyl sulfate] + O
